Measurements: US20070078125A1, “Arylamine mch r1 antagonists” (GLAXO GROUP LIMITED, priority 2003, published 2007)

Assays:
hERG potassium channel = target: T1, hERG potassium channel (Homo sapiens, UniProt Q12809); assay: hERG whole cell patch clamp, tail current inhibition in HEK-293 cells; type: cell-based; details: tail current at −40 mV, room temperature; for inhibition at 3 µM: human, pH 7.4, 3 μM, read-out: hERG Inhibition, % inhib. @ 3 μM
T1 construct: expressed in transfected cells; host or cells: HEK-293 cells, BacMam viral expression system
Description: The comparison was carried out as follows. The hERG potassium channels were transiently expressed in HEK-293 cells using the Bacmam viral expression system (Kost et al, 2000: Pfohl et al, 2001). The HEK-293 cells were maintained in cell media comprised of D-MEM/F12, 10% fetal bovine serum, penicillin G sodium 100 units/mL, and streptomycin sulfate 100 μg/mL. Cells were grown to confluency in flasks and were rinsed once with PBS prior to passage. The flasks were incubated with VERSENE (EDTA) 1:5000 for 5 minutes at 37° C. to detach the cells from the flasks. Cells used in electrophysiology experiments were plated on glass coverslips and transfected 24 to 72 hours prior to use.
hERG channels were studied using the whole cell mode of the patch clamp technique (Hamill et al., 1981). The pipette solution contained 145 mM K+Aspartate, 11 mM EGTA, 5 mM NaCl, 5 mM MgATP, 5 mM HEPES, pH 7.4, and the bath solution contained 145 mM NaCl, 4 mM KCl, 2 mM CaCl2, 1 mM MgCl2, 10 mM HEPES, 10 mM d-glucose pH 7.4. To measure drug effects, the cells were held at −80 mV, then stepped to +20 mV for 400 ms followed by a second pulse to −40 mV so that the outward tail current characteristic of hERG could be measured. […] This pulse protocol was repeated at ten-second intervals during the superfusion of the test article diluted in the bath solution. The inhibition of hERG was determined by measuring the peak amplitude of the tail currents at −40 mV before and after compound application. The half-maximal inhibitory concentration (IC50) was determined from a curve fit of Hill equation to the data points. […] All experiments were conducted at room temperature (approximately 25° C.).

MCH R1 = target: T2, MCH R1 (Homo sapiens, UniProt Q99705); assay: functional antagonist assay of MCH R1 (elkgal4-luc+ reporter gene, CHO cells, inhibition of MCH EC80 response); type: cell-based; details: MCH1R-elkgal4-luc+ CHO cells, read-out: MCH R1 pIC50 (converted)
T2 construct: expressed in transfected cells; host or cells: CHO cells stably expressing elkgal4-luc+ reporter gene (CHO-K1, ATCC)
Source text: The activity of the compounds used in this invention may be assessed in a functional assay of MCH R1 as follows:
Black, 96-well, tissue culture-treated plates (#3904) were obtained from Corning Costar, (Cambridge, Mass.), LucPlus™ Luciferase Reporter Gene Assay Kit (# 6016969) was from Packard (Meriden, Conn.), plate seals (#097-05-00006) were from Beckman/Sagian (Fullerton, Calif.). DMEM/F12 medium (#11039-021), fetal bovine serum (# 16140-071), L-glutamine (#25030-081), 0.05% trypsin (# 25300-054), G418 (#10131-035) and dPBS (#4190-144) were obtained from Gibco BRL (Gaithersburg, Md.). […]
CHO cells, stably expressing an elkgal4-luc^+ reporter gene (host) were transfected by electroporation with the human melanin-concentrating hormone one receptor. […] Plates were sealed and subjected to dark adaptation at room temperature for 10 minutes before luciferase activity was quantitated on a TopCount™ microplate scintillation counter (Packard) using 3 seconds/well count time. The ability of the antagonist to inhibit the MCH EC80 response was quantified by non-linear regression analysis using a curve-fitting program based in Microsoft ExCel. Specificity of the MCH R1 response was determined using the same protocol by measuring the ability of said antagonists to inhibit an EC80 thrombin response (endogenous) in the host cells.

T1 sequence (Q12809 whole entry): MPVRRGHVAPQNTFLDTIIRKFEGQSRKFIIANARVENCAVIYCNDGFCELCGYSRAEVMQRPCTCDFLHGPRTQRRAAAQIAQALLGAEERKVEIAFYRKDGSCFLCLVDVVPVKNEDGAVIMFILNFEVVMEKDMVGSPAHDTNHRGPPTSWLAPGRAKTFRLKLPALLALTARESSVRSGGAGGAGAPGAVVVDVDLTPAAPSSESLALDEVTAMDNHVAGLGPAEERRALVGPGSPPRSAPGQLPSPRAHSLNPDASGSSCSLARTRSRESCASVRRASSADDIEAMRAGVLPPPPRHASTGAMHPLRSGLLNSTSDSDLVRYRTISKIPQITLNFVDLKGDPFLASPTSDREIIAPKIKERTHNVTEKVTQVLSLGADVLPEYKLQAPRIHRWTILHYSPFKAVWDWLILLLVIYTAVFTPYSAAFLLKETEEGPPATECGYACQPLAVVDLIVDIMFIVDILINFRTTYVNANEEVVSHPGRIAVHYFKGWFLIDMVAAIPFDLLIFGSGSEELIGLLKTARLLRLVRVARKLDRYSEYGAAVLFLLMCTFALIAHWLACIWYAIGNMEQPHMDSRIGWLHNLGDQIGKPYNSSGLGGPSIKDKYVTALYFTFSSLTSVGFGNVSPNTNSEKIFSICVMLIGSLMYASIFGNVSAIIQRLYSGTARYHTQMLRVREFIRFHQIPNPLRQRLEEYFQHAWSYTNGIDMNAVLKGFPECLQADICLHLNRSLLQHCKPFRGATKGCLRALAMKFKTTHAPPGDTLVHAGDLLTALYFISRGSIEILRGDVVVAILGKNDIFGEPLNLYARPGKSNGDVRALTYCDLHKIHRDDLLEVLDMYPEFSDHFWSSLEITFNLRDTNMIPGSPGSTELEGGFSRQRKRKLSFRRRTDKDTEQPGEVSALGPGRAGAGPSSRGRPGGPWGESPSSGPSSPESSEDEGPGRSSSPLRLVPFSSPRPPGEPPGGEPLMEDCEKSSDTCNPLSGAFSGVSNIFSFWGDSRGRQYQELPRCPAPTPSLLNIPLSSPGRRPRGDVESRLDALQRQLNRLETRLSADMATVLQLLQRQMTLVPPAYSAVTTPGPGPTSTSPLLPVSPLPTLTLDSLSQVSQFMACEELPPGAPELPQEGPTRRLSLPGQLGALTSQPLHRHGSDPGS
T2 sequence (Q99705 whole entry, the tested form may be a part): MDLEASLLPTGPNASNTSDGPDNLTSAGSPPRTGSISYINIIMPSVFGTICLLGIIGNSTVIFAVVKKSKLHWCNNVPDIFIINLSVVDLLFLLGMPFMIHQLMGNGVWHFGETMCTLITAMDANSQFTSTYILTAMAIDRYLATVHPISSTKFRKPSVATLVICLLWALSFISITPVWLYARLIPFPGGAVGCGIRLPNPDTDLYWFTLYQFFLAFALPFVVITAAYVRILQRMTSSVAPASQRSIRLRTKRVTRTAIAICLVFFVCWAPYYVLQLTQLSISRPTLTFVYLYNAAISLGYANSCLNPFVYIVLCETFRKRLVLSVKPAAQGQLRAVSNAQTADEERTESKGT

IC50 (MCH R1) [nM]	SMILES	inhibition at 3 µM (hERG potassium channel) [%]	IC50 (hERG potassium channel) [nM]
	COc1cc(-n2cnc3cc(-c4ccc(Cl)cc4)sc3c2=O)ccc1OCCN1CC[C@H](O)C1 [Comparison Example 1]	62	2000
	COc1cc(-n2cnc3cc(-c4ccc(Cl)cc4)sc3c2=O)ccc1OCCN1CC[C@@H](O)C1 [Comparison Example 2]	90	
	COc1cc(-n2cnc3cc(-c4ccc(Cl)cc4)sc3c2=O)ccc1OCCCN1CC[C@@H](O)C1 [Comparison Example 3]	84	
2.51	COc1cc(-n2cnc3cc(-c4ccc(Cl)cc4)sc3c2=O)ccc1N1CC[C@@H](O)C1 [Example 1, 6-(4-chlorophenyl)-3-{4-[(3R)-3-hydroxypyrrolidin-1-yl]-3-methoxyphenyl}thieno[3,2-d]pyrimidin-4(3H)-one]		
2	COc1cc(-n2cnc3cc(-c4ccc(Cl)cc4)sc3c2=O)ccc1N1CC[C@H](O)C1 [Example 4, 6-(4-chlorophenyl)-3-{4-[(3S)-3-hydroxypyrrolidin-1-yl]-3-methoxyphenyl}thieno[3,2-d]pyrimidin-4(3H)-one]		
